Reference: ChEMBL document CHEMBL1126077 (J Med Chem, 1992)

Experiments:
[1] = target: T1, Cholesterol side-chain cleavage enzyme, mitochondrial (Bos taurus, UniProt P00189); assay: Inhibition of bovine adrenal desmolase at 25 uM; details: cattle; for Inhibition: 25 µM
T1 sequence (P00189 whole entry): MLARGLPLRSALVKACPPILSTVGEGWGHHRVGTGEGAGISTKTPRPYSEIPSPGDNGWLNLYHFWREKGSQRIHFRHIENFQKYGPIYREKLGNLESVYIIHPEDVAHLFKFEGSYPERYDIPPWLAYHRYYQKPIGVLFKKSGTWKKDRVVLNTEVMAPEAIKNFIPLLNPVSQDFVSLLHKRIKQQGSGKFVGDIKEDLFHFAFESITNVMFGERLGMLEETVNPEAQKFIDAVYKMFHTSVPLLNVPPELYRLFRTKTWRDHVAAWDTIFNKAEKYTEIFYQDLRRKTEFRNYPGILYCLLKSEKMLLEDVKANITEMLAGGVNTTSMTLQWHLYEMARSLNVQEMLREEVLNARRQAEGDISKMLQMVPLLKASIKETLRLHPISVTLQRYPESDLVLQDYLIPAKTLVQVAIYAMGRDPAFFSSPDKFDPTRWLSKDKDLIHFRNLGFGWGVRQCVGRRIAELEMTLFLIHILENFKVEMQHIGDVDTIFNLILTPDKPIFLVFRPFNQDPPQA

Aromatase = target: T2, Aromatase (Homo sapiens, UniProt P11511)
T2 sequence (P11511 whole entry): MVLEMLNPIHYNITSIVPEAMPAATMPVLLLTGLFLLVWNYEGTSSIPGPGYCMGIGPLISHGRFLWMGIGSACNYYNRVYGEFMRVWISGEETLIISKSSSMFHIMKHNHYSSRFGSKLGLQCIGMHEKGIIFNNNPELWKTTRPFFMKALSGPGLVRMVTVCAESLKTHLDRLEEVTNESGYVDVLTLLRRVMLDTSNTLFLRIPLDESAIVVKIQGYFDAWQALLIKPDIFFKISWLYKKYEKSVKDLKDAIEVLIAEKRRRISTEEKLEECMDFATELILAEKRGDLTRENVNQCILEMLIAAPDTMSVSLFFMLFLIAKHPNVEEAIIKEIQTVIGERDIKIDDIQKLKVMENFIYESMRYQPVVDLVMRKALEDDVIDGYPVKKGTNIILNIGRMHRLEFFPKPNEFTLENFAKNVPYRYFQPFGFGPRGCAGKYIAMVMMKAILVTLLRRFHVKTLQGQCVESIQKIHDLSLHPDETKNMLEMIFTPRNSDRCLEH
Description: Concentration inhibiting Aromatase

[2] = target: T1, Cholesterol side-chain cleavage enzyme, mitochondrial; assay: Inhibition of bovine adrenal desmolase

Structure (SMILES) | inhibition at 25 µM [1] [%] | IC50 (Aromatase) [µM] | Inhibition [1] [%] | IC50 [2] [µM]
Nc1ccc(C2(C3CCCC3)CCC(=O)NC2=O)cc1 (centres undefined) | 59 | 1.2 |  | 
Nc1ccc(C2(C3CCCCC3)CCC(=O)NC2=O)cc1 (single isomer, unassigned; (-)) |  | 4.6 | 39 | 
Nc1ccc(C2(C3CCCCC3)CCC(=O)NC2=O)cc1 (stereo in doubt; 2) |  | 0.3 | 31 | 67
CC[C@@]1(c2ccc(N)cc2)CCC(=O)NC1=O | 36 |  |  | 
CC[C@]1(c2ccc(N)cc2)CCC(=O)NC1=O | 67 |  |  | 
CCC1(c2ccc(N)cc2)CCC(=O)NC1=O (centres undefined) [AMINOGLUTETHIMIDE] | 57 |  |  | 29
Nc1ccc(C2(C3CCCCC3)CCC(=O)NC2=O)cc1 (single isomer, unassigned; (+)) |  | 0.15 | 19 | 82
